Test results taken from ChEMBL document CHEMBL1201862, “PubChem BioAssay data set” (2004).
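Test compounds were applied to cells in 96-well plates for 48 hours at 5 doses. GI50: concentration for 50% inhibition of growth.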 Activity calls are given as the source filed them. No stated cut-off is given here; in the data, active = GI50 up to about 1.1 µM and inactive = higher.

Legend:
Experiment in all cases: DTP human tumour cell line panel, 48 h
SF-295 = tested on: SF-295
KM12 = tested on: KM12
HOP-92 = tested on: HOP-92
HT-29 = tested on: HT-29
SF-539 = tested on: SF-539
SK-MEL-5 = tested on: SK-MEL-5
OVCAR-3 = tested on: OVCAR-3
TK-10 = tested on: TK-10
UO-31 = tested on: UO-31
HL-60 = tested on: HL-60
SNB-19 = tested on: SNB-19
NCI-H460 = tested on: NCI-H460
UACC-62 = tested on: UACC-62
A498 = tested on: A498
HCC 2998 = tested on: HCC 2998
UACC-257 = tested on: UACC-257
HOP-62 = tested on: HOP-62

Measured: GI50

COc1ccc(S(=O)(=O)N(C)CC(=O)O)cc1
inactive: SF-295 > 100 µM | KM12 > 100 µM | HOP-92 > 100 µM | HT-29 > 100 µM | SF-539 > 100 µM | SK-MEL-5 > 100 µM | OVCAR-3 > 100 µM | TK-10 > 100 µM | UO-31 > 100 µM | HL-60 > 100 µM | SNB-19 > 100 µM | NCI-H460 > 100 µM | UACC-62 > 100 µM | A498 > 100 µM | HCC 2998 > 100 µM | UACC-257 > 100 µM

COc1ccccc1/C=N/N=C(\N)NO
inactive: SF-295 3.09 µM | KM12 12.7 µM | HOP-92 11 µM | HT-29 18.6 µM | SF-539 3.03 µM | SK-MEL-5 2.77 µM | OVCAR-3 45.1 µM | UO-31 7.18 µM | HOP-62 6 µM | SNB-19 > 100 µM | NCI-H460 4.14 µM | UACC-62 4.21 µM | A498 33.5 µM | HCC 2998 4.68 µM | UACC-257 29.1 µM

c1ccc2c(c1)[Se]c1ccccc1[Se]2
inactive: SF-295 25.6 µM | KM12 > 100 µM | HOP-92 25.8 µM | HT-29 > 100 µM | SF-539 44.3 µM | SK-MEL-5 > 100 µM | OVCAR-3 > 100 µM | TK-10 78.5 µM | UO-31 51.6 µM | HL-60 27.1 µM | HOP-62 > 100 µM | SNB-19 > 100 µM | NCI-H460 38.3 µM | UACC-62 > 100 µM | A498 > 100 µM | UACC-257 > 100 µM

Cc1cc(NC(=O)C2C3C=CC(O3)C2C(=O)O)no1 (configuration not stated)
inactive: SF-295 > 100 µM | HOP-92 > 100 µM | HT-29 34.6 µM | SF-539 24 µM | SK-MEL-5 > 100 µM | OVCAR-3 > 100 µM | TK-10 > 100 µM | UO-31 > 100 µM | HL-60 23.5 µM | HOP-62 > 100 µM | SNB-19 > 100 µM | NCI-H460 31.7 µM | UACC-62 > 100 µM | A498 48 µM | HCC 2998 > 100 µM | UACC-257 35 µM

Cc1ccc(S(=O)(=O)OC2CC=CC2)cc1
inactive: SF-295 > 100 µM | KM12 > 100 µM | HOP-92 > 100 µM | HT-29 > 100 µM | SK-MEL-5 > 100 µM | OVCAR-3 > 100 µM | TK-10 > 100 µM | UO-31 > 100 µM | HL-60 > 100 µM | HOP-62 > 100 µM | SNB-19 > 100 µM | NCI-H460 > 100 µM | UACC-62 > 100 µM | HCC 2998 > 100 µM | UACC-257 > 100 µM

CC(C)c1cc2c(O)c(c1)Cc1cc(C(C)C)cc(c1O)Cc1cc(C(C)C)cc(c1O)Cc1cc(C(C)C)cc(c1O)C2
inactive: SF-295 > 100 µM | KM12 > 100 µM | HOP-92 > 100 µM | HT-29 > 100 µM | SF-539 > 100 µM | SK-MEL-5 > 100 µM | OVCAR-3 > 100 µM | TK-10 > 100 µM | UO-31 > 100 µM | HL-60 > 100 µM | HOP-62 > 100 µM | SNB-19 > 100 µM | NCI-H460 > 100 µM | UACC-62 > 100 µM | A498 > 100 µM | UACC-257 > 100 µM

COc1cc(C2C(C(=O)O)=C(C)Oc3cc4c(cc32)OCO4)cc(OC)c1OC (configuration not stated)
inactive: SF-295 17.3 µM | HOP-92 > 100 µM | HT-29 31.6 µM | SK-MEL-5 23.1 µM | OVCAR-3 19.3 µM | TK-10 88.3 µM | UO-31 15.3 µM | HL-60 15.7 µM | SNB-19 40.6 µM | NCI-H460 37.7 µM | UACC-62 11.7 µM | UACC-257 39.6 µM

CC(O)CN1C(=O)NC(Cc2ccccc2)C1=O (configuration not stated)
inactive: SF-295 > 100 µM | KM12 > 100 µM | HOP-92 > 100 µM | HT-29 > 100 µM | SF-539 > 100 µM | TK-10 > 100 µM | UO-31 > 100 µM | HL-60 > 100 µM | HOP-62 29.5 µM | SNB-19 > 100 µM | NCI-H460 > 100 µM | HCC 2998 > 100 µM | UACC-257 > 100 µM

Cc1cc2c(c(C(N)=O)c1C)-c1ccccc1C2=O
inactive: SF-295 > 100 µM | KM12 2.42 µM | HOP-92 > 100 µM | HT-29 > 100 µM | SF-539 > 100 µM | OVCAR-3 > 100 µM | TK-10 > 100 µM | UO-31 > 100 µM | HL-60 > 100 µM | HOP-62 > 100 µM | SNB-19 > 100 µM | NCI-H460 > 100 µM | UACC-62 > 100 µM | A498 51.4 µM | HCC 2998 > 100 µM | UACC-257 > 100 µM

COc1ccccc1N1C(=O)/C(=C/c2ccc(N(CCC#N)CCC#N)cc2C)N=C1c1cc([N+](=O)[O-])ccc1Cl
inactive: SF-295 > 100 µM | KM12 > 100 µM | HT-29 > 100 µM | SF-539 > 100 µM | SK-MEL-5 > 100 µM | OVCAR-3 > 100 µM | TK-10 > 100 µM | UO-31 > 100 µM | HL-60 > 100 µM | HOP-62 > 100 µM | SNB-19 > 100 µM | NCI-H460 > 100 µM | A498 > 100 µM | HCC 2998 > 100 µM | UACC-257 > 100 µM

CC(=O)Nc1cc(N(CCOS(C)(=O)=O)CCOS(C)(=O)=O)ccc1N=O
inactive: SF-295 > 100 µM | KM12 > 100 µM | HOP-92 > 100 µM | HT-29 > 100 µM | SF-539 > 100 µM | SK-MEL-5 > 100 µM | OVCAR-3 > 100 µM | TK-10 > 100 µM | UO-31 > 100 µM | HL-60 > 100 µM | HOP-62 > 100 µM | SNB-19 > 100 µM | NCI-H460 > 100 µM | UACC-62 > 100 µM | HCC 2998 > 100 µM | UACC-257 > 100 µM

O=C(CCn1[nH]c(=O)c(Cl)c(Cl)c1=O)NO
inactive: SF-295 > 100 µM | KM12 > 100 µM | HT-29 > 100 µM | SF-539 > 100 µM | SK-MEL-5 > 100 µM | OVCAR-3 > 100 µM | TK-10 > 100 µM | UO-31 > 100 µM | HL-60 > 100 µM | HOP-62 > 100 µM | SNB-19 > 100 µM | NCI-H460 > 100 µM | UACC-62 > 100 µM | A498 > 100 µM | HCC 2998 > 100 µM | UACC-257 > 100 µM

COc1cccc(SSc2cccc(OC)c2C(=O)O)c1C(=O)O
inactive: SF-295 > 100 µM | KM12 > 100 µM | HOP-92 > 100 µM | HT-29 > 100 µM | SF-539 > 100 µM | SK-MEL-5 > 100 µM | OVCAR-3 > 100 µM | TK-10 > 100 µM | UO-31 > 100 µM | HL-60 > 100 µM | HOP-62 > 100 µM | NCI-H460 > 100 µM | UACC-62 > 100 µM | A498 > 100 µM | UACC-257 > 100 µM
